Here are results for one compound from EP4652998A1, “TREATMENT OF RECEPTOR-INTERACTING PROTEIN KINASE 1- MEDIATED DISEASE WITH ECLITASERTIB” (Technische Universität München, priority 2024, dated 2025).

In this assay the test system is keratinocyte skin equivalents. Nature of the assay: Three-dimensional keratinocyte skin equivalents stimulated with LP/LE-TCS, histology and epidermal thickness. It is filed as cell-based, human. The conditions noted are these: 100 nM inhibitor, LP/LE-TCS 1:10 + zVAD + SMAC, 72 h. How it is done:
Three-dimensional keratinocyte skin equivalents were generated as described before Arch Dermatol Res 296, 203-211 (2004)). Briefly, 3.0E^5 primary human keratinocytes were seeded in 500 µL keratinocyte medium with 1.5 mM CaCh into the insert and placed in a well containing the same medium. After two days, keratinocytes were exposed to the air-liquid interface and medium in the surrounding well was supplemented with 50 µg/mL Vitamin C. Nine days after airlift, the skin equivalents were pre-treated for 1 h with RIPK1 inhibitor (100 nM, SANOFI) followed by a stimulation with supernatant mix of lesional T cells from LP and LE patients (1: 10 diluted) in the presence of zVAD (20 µM, Cell Signaling, #60332), SMAC (1 µM, LC Laboratories, #B-9135) and the RIPK1 inhibitor for 72 h. Afterwards, membranes of the fixated skin equivalents were cut out with a scalpel, divided into two pieces, formalin fixed and embedded in paraffin. […] Concentrations of key cytokines in the supernatant mix of lesional T cells were determined by a multiplex ELISA (Biorad) and listed in Table S4. […]

With `CN1C(=O)[C@@H](NC(=O)c2nnc(Cc3ccccc3)[nH]2)COc2cccnc21` [SAR443122, 5-Benzyl-N-[(3S)-5-methyl-4-oxo-2,3-dihydropyrido[3,2-b][1,4]oxazepin-3-yl]-4H-1,2,4-triazole-3-carboxamide], the epidermal architecture result was “restored the normal epidermal architecture”. Also, the epidermal thickness (stimulated control 102.0 ± 5.1, unstimulated 61.3 ± 5.4, p<0.0001) came to 80.3 ± 5.1 µm.
